In patent US12391664B2, “GluN2C/D subunit selective antagonists of the N-methyl-D-aspartate receptor” (Emory University, priority 2018, dated 2025):
pIC50: −log10 of the molar value. Where two headings read alike, the source gives them in different places.

Legend:
Assay type in all cases: cell-based
[1] = molecular target: T1, recombinant rat GluN1/GluN2B (Rattus norvegicus, UniProt Q00960); test: Two-electrode voltage-clamp recordings in Xenopus laevis oocytes, GluN2B; settings: for I3 μM/Icontrol (mean ± SEM, %) GluN2B: 3 μM compound with 100 μM glutamate and 30 μM glycine, control set as 1; for GluN2B IC50: oocytes, 100 μM glutamate and 30 μM glycine
T1 construct: expressed in transfected cells; host or cells: Xenopus laevis oocytes injected with cRNA (GluN1:GluN2 ratio 1:2)
Experimental: (§1) All target compounds were evaluated for activity by the Traynelis laboratory at Emory University using two-electrode voltage-clamp recordings performed in Xenopus laevis oocytes expressing recombinant GluN2A-D subunits (Table 1). […] Two ester compounds 997-65 and 997-66 also performed no inhibition at GluN2A to GluN2D receptors. […] Consequently, for the compounds that Acker et al. already published, it was necessary to increase the concentration to 100 μM when collecting data for a concentration effect curve. […] Therefore, under this condition, we can only conclude that compound 997-67 remained potent at GluN2C/D-containing receptors, but its selectivity over GluN2A- and GluN2B-containing receptors could not be compared to 997-57. […] Finally, replacing the carboxylic acid to the bio-isostere amide yielded compounds 997-96 and 997-115, which dropped the potency 2- to 4-fold in comparison to their corresponding acids 997-74 and 997-114.
(§2) Two-electrode voltage-clamp recordings were performed in Xenopus laevis oocytes that were injected with mRNA to express recombinant rat GluN1/GluN2A, GluN1/GluN2B, GluN1/GluN2C, and GluN1/GluN2D. The recordings using unfertilized oocytes from Xenopus laevis were permitted by Emory University Institutional Animal Care and Use Committee (IACUC). An automatic injector (Nanoject II, Drummond Scientific) was used for cRNA injection using the pipettes filled with mineral oil. The cRNA that transcribed in vitro via the mMessage Machine kit (Ambion) was diluted with nuclease-free water, and then injected at GluN1/GluN2 with a ratio of 1:2. The oocytes were stored in Barth's solution that contained 88 mM NaCl, 5.0 mM Tris-HCl, 2.4 mM NaHCO3, 1.0 mM KCl, 0.84 mM MgSO4, 0.41 mM CaCl2, 0.33 mM Ca(NO3)2, 0.1 mg/ml gentamycin sulfate, 1.0 U/ml penicillin, and 1 μg/ml streptomycin at a pH of 7.4 and temperatures of 15-17° C. for two to five days before the two-electrode voltage-clamp recordings. When recording, the oocytes were placed in a perfusion chamber and continually washed with the recording solution comprised of 90 mM NaCl, 1.0 mM KCl, 0.50 mM BaCl2, 0.005 mM EDTA, and 10 mM HEPES at a pH of 7.4 and a temperature of 23° C. Glass electrodes with a tip resistance of 0.5 to 2.5 MΩ were obtained from thin-walled glass capillary tubes. Voltage electrodes and current electrodes were filled with 0.3 M and 3.0 M KCl, respectively. The recordings were executed with the oocytes membrane potential holding at −40 m V by an OC-725 amplifier (Warner Instrument Co). All compounds were dissolved in dimethyl sulfoxide (DMSO) as 20 mM stock solutions and future diluted to reach the desired concentration (0.05-0.5% (vol/vol) DMSO) in recording solution comprised of 30 μM glycine and 100 μM glutamate. Each compound was recorded 3-7 times in the least 4 oocytes from at least 2 different Xenopus laevis.
(§3) To evaluate the inhibition of compounds, the concentration-response curve was fitted with the average two-electrode voltage-clamp recording results with the equation
(§4) [formula] • where IC50 is the concentration of compounds that inhibit half maximal of the current response and N is the Hill slope.

[2] = molecular target: T2, recombinant rat GluN1/GluN2A (Rattus norvegicus, UniProt Q00959); test: Two-electrode voltage-clamp recordings in Xenopus laevis oocytes, GluN2A; settings: for I3 μM/Icontrol (mean ± SEM, %) GluN2A: 3 μM compound with 100 μM glutamate and 30 μM glycine, control set as 1; for GluN2A IC50: oocytes, 100 μM glutamate and 30 μM glycine
T2 construct: expressed in transfected cells; host or cells: Xenopus laevis oocytes injected with cRNA (GluN1:GluN2 ratio 1:2)
Experimental: as §1, §2, §3, §4

[3] = molecular target: T3, recombinant rat GluN1/GluN2D (Rattus norvegicus, UniProt P35439+Q62645); test: Two-electrode voltage-clamp recordings in Xenopus laevis oocytes, GluN2D
T3 construct: expressed in transfected cells; host or cells: Xenopus laevis oocytes injected with cRNA (GluN1:GluN2 ratio 1:2)
Experimental: as §1, §2, §3, §4

[4] = molecular target: T4, recombinant rat GluN1/GluN2D (Rattus norvegicus, UniProt Q62645); test: as above; settings: for I3 μM/Icontrol (mean ± SEM, %) GluN2D: 3 μM compound with 100 μM glutamate and 30 μM glycine, control set as 1; for 2A IC50 / 2D IC50 / 2B IC50 / 2D IC50: ratio of IC50 values; for GluN2D IC50: oocytes, 100 μM glutamate and 30 μM glycine
T4 construct: expressed in transfected cells; host or cells: Xenopus laevis oocytes injected with cRNA (GluN1:GluN2 ratio 1:2)
Experimental: as §1, §2, §3, §4

[5] = molecular target: T5, recombinant rat GluN1/GluN2C (Rattus norvegicus, UniProt P35439+Q00961); test: Two-electrode voltage-clamp recordings in Xenopus laevis oocytes, GluN2C
T5 construct: expressed in transfected cells; host or cells: Xenopus laevis oocytes injected with cRNA (GluN1:GluN2 ratio 1:2)
Experimental: as §1, §2, §3, §4

[6] = molecular target: T6, recombinant rat GluN1/GluN2C (Rattus norvegicus, UniProt Q00961); test: as above; settings: for I3 μM/Icontrol (mean ± SEM, %) GluN2C: 3 μM compound with 100 μM glutamate and 30 μM glycine, control set as 1; for GluN2C IC50: oocytes, 100 μM glutamate and 30 μM glycine
T6 construct: expressed in transfected cells; host or cells: Xenopus laevis oocytes injected with cRNA (GluN1:GluN2 ratio 1:2)
Experimental: as §1, §2, §3, §4

[7] = molecular target: T7, recombinant rat GluN1/GluN2B (Rattus norvegicus, UniProt P35439+Q00960); test: Two-electrode voltage-clamp recordings in Xenopus laevis oocytes, GluN2B; settings: oocytes, 100 μM glutamate and 30 μM glycine
T7 construct: expressed in transfected cells; host or cells: Xenopus laevis oocytes injected with cRNA (GluN1:GluN2 ratio 1:2)
Experimental: as §1, §2, §3, §4

[8] = molecular target: T8, recombinant rat GluN1/GluN2A (Rattus norvegicus, UniProt P35439+Q00959); test: Two-electrode voltage-clamp recordings in Xenopus laevis oocytes, GluN2A; settings: oocytes, 100 μM glutamate and 30 μM glycine
T8 construct: expressed in transfected cells; host or cells: Xenopus laevis oocytes injected with cRNA (GluN1:GluN2 ratio 1:2)
Experimental: as §1, §2, §3, §4

[9] = mean IC50 with bottom and top 95% confidence interval, read-out: Avg. GluN2D IC50 (95% CI)
[10] = oocytes, 100 μM glutamate and 30 μM glycine, read-out: GluN2D IC50
[11] = oocytes, 100 μM glutamate and 30 μM glycine, read-out: GluN2C IC50

T1 sequence (Q00960 27-1482, other chains not shown): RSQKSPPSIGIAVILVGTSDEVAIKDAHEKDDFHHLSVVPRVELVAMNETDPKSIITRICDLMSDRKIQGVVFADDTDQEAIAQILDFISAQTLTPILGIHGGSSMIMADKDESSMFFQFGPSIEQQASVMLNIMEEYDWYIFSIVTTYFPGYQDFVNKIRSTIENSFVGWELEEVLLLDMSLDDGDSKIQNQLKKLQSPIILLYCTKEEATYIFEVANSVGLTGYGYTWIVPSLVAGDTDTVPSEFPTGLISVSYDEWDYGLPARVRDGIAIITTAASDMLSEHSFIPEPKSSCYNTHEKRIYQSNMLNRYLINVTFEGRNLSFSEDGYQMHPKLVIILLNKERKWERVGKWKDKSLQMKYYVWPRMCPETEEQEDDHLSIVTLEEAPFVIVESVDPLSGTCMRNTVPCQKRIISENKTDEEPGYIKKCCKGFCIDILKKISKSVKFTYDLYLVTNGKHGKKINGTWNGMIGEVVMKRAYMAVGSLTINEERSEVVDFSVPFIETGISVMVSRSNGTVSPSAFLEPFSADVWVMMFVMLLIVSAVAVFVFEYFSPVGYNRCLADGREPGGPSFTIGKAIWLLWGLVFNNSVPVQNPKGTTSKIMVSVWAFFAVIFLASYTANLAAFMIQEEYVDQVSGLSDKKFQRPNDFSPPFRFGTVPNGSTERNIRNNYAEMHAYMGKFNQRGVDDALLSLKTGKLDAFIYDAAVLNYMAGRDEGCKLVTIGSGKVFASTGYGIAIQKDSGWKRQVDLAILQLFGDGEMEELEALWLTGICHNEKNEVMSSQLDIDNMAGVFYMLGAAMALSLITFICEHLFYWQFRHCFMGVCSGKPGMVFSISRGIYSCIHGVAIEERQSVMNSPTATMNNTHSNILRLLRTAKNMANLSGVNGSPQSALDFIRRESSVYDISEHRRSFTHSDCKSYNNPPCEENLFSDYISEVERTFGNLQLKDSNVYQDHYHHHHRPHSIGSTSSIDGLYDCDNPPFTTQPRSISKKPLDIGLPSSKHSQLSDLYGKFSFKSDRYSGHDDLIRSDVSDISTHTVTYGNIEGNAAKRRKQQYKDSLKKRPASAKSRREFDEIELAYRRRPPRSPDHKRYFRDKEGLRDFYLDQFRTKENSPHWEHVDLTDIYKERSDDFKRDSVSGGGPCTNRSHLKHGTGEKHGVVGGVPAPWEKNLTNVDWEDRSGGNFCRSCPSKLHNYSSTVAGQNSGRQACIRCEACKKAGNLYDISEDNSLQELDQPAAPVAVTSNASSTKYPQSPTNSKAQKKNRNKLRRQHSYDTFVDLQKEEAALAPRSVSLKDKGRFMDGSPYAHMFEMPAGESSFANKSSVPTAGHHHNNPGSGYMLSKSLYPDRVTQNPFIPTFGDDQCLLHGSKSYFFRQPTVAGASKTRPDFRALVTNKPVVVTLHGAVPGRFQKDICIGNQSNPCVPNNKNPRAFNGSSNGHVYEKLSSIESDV
T7 sequence (Q00960 27-1482, other chains not shown): as above
T8 sequence (Q00959 23-1464, other chains not shown): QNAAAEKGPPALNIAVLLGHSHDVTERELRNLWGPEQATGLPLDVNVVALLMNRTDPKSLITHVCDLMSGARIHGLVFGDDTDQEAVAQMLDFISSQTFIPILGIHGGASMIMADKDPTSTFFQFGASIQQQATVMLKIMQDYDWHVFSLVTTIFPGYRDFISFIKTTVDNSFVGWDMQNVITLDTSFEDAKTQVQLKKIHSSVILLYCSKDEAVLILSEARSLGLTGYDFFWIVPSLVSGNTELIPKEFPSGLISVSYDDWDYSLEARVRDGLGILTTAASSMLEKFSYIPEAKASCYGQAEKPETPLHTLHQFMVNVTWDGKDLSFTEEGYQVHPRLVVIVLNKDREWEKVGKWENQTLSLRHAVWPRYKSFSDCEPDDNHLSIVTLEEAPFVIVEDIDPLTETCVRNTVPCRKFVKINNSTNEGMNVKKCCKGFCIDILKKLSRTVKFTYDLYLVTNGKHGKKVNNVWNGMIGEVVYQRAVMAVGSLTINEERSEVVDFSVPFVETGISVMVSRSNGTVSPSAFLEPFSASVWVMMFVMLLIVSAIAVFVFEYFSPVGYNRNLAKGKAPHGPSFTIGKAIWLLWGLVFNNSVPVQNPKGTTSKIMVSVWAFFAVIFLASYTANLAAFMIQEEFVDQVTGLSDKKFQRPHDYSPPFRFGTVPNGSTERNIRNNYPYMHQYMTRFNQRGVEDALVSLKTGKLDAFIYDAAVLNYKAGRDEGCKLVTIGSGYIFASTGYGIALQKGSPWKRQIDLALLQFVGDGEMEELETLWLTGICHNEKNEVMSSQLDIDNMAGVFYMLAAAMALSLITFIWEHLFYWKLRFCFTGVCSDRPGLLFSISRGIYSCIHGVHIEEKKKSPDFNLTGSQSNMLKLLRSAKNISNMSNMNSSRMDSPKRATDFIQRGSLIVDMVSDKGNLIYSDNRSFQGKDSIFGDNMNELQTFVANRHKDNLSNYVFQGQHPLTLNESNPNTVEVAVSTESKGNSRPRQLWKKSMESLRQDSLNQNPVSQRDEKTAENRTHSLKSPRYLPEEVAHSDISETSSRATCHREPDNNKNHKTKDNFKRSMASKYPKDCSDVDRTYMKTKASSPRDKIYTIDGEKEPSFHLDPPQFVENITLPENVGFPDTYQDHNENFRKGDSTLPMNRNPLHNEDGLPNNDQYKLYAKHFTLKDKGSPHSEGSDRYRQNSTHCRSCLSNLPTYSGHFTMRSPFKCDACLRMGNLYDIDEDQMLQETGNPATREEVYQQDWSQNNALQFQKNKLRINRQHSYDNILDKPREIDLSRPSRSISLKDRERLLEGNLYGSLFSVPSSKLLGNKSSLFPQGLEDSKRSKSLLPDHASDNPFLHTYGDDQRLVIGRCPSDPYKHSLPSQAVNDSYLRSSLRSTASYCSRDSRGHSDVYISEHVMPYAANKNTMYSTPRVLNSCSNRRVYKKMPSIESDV

## O=C(CC(F)(F)CO)N1N=C(c2c(-c3ccc(Cl)cc3)c3ccccc3[nH]c2=O)CC1c1ccc(Cl)cc1 (single isomer, unassigned; (+)) [(+)-997-67]
[1]; listed as (+)-67
  I3 μM/Icontrol (mean ± SEM, %) GluN2B: 87 ± 2.8%
[2]; listed as (+)-67
  I3 μM/Icontrol (mean ± SEM, %) GluN2A: 98 ± 2.1%
[3]; [9]
  pIC50: 5.15
[3]; [10]
  pIC50: 5.44
[4]; listed as (+)-67
  I3 μM/Icontrol (mean ± SEM, %) GluN2D: 57 ± 3.5%
[5]; [11]
  pIC50: 5.07
[6]; listed as (+)-67
  I3 μM/Icontrol (mean ± SEM, %) GluN2C: 74 ± 2.1%

## O=C(CC(F)(F)CO)N1N=C(c2c(-c3ccc(Cl)cc3)c3ccccc3[nH]c2=O)CC1c1ccc(Cl)cc1 (single isomer, unassigned; (-)) [(−)-997-67]
[1]; listed as (−)-67
  I3 μM/Icontrol (mean ± SEM, %) GluN2B: 95 ± 2.2%
[2]; listed as (−)-67
  I3 μM/Icontrol (mean ± SEM, %) GluN2A: 100 ± 0.89%
[3]; [9]
  pIC50: 6.01
[3]; [10]
  pIC50: 6.21
[4]; listed as (−)-67
  I3 μM/Icontrol (mean ± SEM, %) GluN2D: 26 ± 3.2%
[4]; (−)- versus (+)-enantiomer
  fold more potent than the (+)-enantiomer at GluN2D: 6 fold
[5]; mean IC50 with bottom and top 95% confidence interval, read-out: Avg. GluN2C IC50 (95% CI)
  pIC50: 5.57
[5]; [11]
  pIC50: 5.85
[6]; listed as (−)-67
  I3 μM/Icontrol (mean ± SEM, %) GluN2C: 42 ± 2.8%

## O=C(CC(F)(F)C(=O)O)N1N=C(c2c(-c3cccc(F)c3)c3ccccc3[nH]c2=O)CC1c1ccc(Cl)cc1 (centres unmarked) [997-69, 4-{5-(4-chlorophenyl)-3-[4-(3-fluorophenyl)-2-oxo-1,2-dihydroquinolin-3-yl]-4,5-dihydro-1H-pyrazol-1-yl}-2,2-difluoro-4-oxobutanoic acid]
[7]
  pIC50: 4.32
[8]
  pIC50: 4.55
[4]
  2A IC50 / 2D IC50: 56
  2B IC50 / 2D IC50: 96

## O=C(O)CC(F)(F)C(=O)N1N=C(c2c(-c3ccc(Cl)cc3)c3ccccc3[nH]c2=O)CC1c1ccc(Cl)cc1 (centres unmarked) [997-74, 4-(5-(4-chlorophenyl)-3-(4-(4-chlorophenyl)-2-oxo-1,2-dihydroquinolin-3-yl)-4,5-dihydro-1H-pyrazol-1-yl)-3,3-difluoro-4-oxobutanoic acid]
[7]
  pIC50: 5.16
[8]
  pIC50: 4.96
[4]
  selectivity at GluN2D- over GluN2A-containing receptor: approximately 220 fold
  2A IC50 / 2D IC50: 220
  2B IC50 / 2D IC50: 138

## Cc1c(C2=NNC(c3ccc(Cl)cc3)C2)c(=O)[nH]c2ccccc12 (centres unmarked) [997-77, 3-(5-(4-chlorophenyl)-4,5-dihydro-1H-pyrazol-3-yl)-4-methylquinolin-2(1H)-one]
[1]
  GluN2B IC50: NE (NE indicates less than 50% inhibition at 30 μM.)
[2]
  GluN2A IC50: NE (NE indicates less than 50% inhibition at 30 μM.)
[4]
  GluN2D IC50: NE (NE indicates less than 50% inhibition at 30 μM.)
[6]
  GluN2C IC50: NE (NE indicates less than 50% inhibition at 30 μM.)

## O=c1[nH]c2ccccc2c(-c2ccc(Cl)cc2)c1C1=NNC(c2ccncc2)C1 (centres unmarked) [997-78, 4-(4-chlorophenyl)-3-[5-(pyridin-4-yl)-4,5-dihydro-1H-pyrazol-3-yl]quinolin-2(1H)-one]
[1]
  GluN2B IC50: weak potency
[7]
  pIC50: 4.27
[2]
  GluN2A IC50: NE (NE indicates less than 50% inhibition at 30 μM.)
[3]; [10]
  pIC50: 4.72
[4]
  GluN2D IC50: weak potency
  2B IC50 / 2D IC50: 3
[5]; [11]
  pIC50: 4.70
[6]
  GluN2C IC50: weak potency

## Cc1ccc2[nH]c(=O)c(C3=NN(C(=O)C(F)(F)CC(=O)O)C(c4ccc(Cl)cc4)C3)c(-c3ccc(Cl)cc3)c2c1 (centres unmarked) [997-90, 4-(5-(4-chlorophenyl)-3-(4-(4-chlorophenyl)-6-methyl-2-oxo-1,2-dihydroquinolin-3-yl)-4,5-dihydro-1H-pyrazol-1-yl)-3,3-difluoro-4-oxobutanoic acid]
[7]
  pIC50: 5.52
[8]
  pIC50: 5.52
[3]; [10]
  pIC50: 6.70
[5]; [11]
  pIC50: 6.40
